# What was measured:
# [1] = Two stage gastric transfer non-sink dissolution test (0.1N HCl then FaSSIF); type: physicochemical; conditions: 100 RPM
# Description: In vitro drug dissolution performance for both API forms and each SDI was evaluated by the two stage ‘gastric transfer’ non-sink dissolution test (Table 8), which simulates pH and bile salt concentrations for both gastric and intestinal exposure in a sample to perform assay. Pre-weighed SDI powder is briefly suspended in media (e.g., by 10 sec vortex mixing with 4.0 mL media) and transferred to a pre-heated (37° C.) volume of 50 mL of 0.1N HCl (aq) (simulated gastric fluid or SGF, pH ˜1.0, without pepsin or bile salts), in a USP Type 2 mini-vessel (100 mL total vessel volume) while stirring (paddles) at 100 rpm. […] Initial Compound A API measurements and SDI dissolution samples were determined utilizing a HPLC method (Table 7). […]
# [2] = system: AHR; experiment: Pharmacodynamics: VAG539-induced CYP1A1 mRNA in mouse liver and spleen; type: in vivo, C57BL/6 mice; conditions: 25 mg/kg Compound A oral
# Description: The pharmacodynamic effect of Compound A on the inhibition of AHR-dependent gene expression in liver and spleen was examined in C57BL/6 mice.
# Mice were sacrificed at 4 and 10 hours post-dose and RNA was extracted and gene expression of CYP1A1 and the housekeeping gene mouse glyceraldehyde 3-phosphate dehydrogenase were quantified. CYP1A1 mRNA expression levels for each dose group for liver and spleen tissues were normalized to the control group.
# [3] = Phase 1 dose-escalation study: interim cohort pharmacokinetics; type: in vivo, human; conditions: Cycle 2 Day 1 (C2D1)
# Description: Serial blood samples are obtained to characterize the plasma PK of Compound A and its major active metabolites. The initial sampling strategy is based on the predicted human PK of this compound. If in the course of evaluating the PK, it is determined that an alternative sampling scheme would be more informative, then that alternative sampling scheme may be implemented if the total amount of blood and blood draws obtained for PK is not increased. Moreover, the total number of samples may be decreased at any time if the initial sampling scheme is considered unnecessarily intensive.
# Interim cohort pharmacokinetics were assessed on parent (Compound A) and two active metabolites (Compound B and Compound C). […] Compound B metabolite ratio is increased on C2D1 in cohorts above 200 mg dosages. […] Without wishing to be bound or limited by theory, elimination rate limited kinetics likely contributing to the accumulation of Compound B through on-target inhibition of CYP1A1.
# [4] = system: other receptors, transporters, and kinases; experiment: Selectivity for AHR over other receptors, transporters, and kinases
# Text: (§1) Compound A is a selective AHR antagonist being developed as an orally administered therapeutic. […] Compound A inhibits CYP1A1 and interleukin (IL)-22 gene expression and leads to an increase in pro-inflammatory cytokines, such as IL-2 and IL-9.
# [5] = system: human T cell; experiment: Human T cell assays: pro-inflammatory cytokines; type: cell-based
# Text: as §1
compound,measurement,setting,value
"CC(C)c1cnn2c(N[C@@H]3CCc4[nH]c5ccccc5c4C3)nc(-c3cncc(F)c3)nc12 [Compound A, (R)—N-(2-(5-fluoropyridin-3-yl)-8-isopropylpyrazolo[1,5-a][1,3,5]triazin-4-yl)-2,3,4,9-tetrahydro-1H-carbazol-3-amine]",AUC35-210 FaSSIF (area under the curve after transfer to FaSSIF from 35 to 210 minutes),[1],2100 min*μgA/mL
same,C210 (drug concentration at 180 minutes after transfer to FaSSIF),[1],4.5 μgA/mL
same,inhibition of CYP1A1 mRNA increases induced by VAG539 in the liver,[2]; with 30 mg/kg VAG539,Complete inhibition
same,inhibition of CYP1A1 mRNA induction in the spleen,"[2]; with 30 mg/kg VAG539, at 4 hours",complete inhibition
same,dose proportionality of PK,[3],greater than dose proportional
same,"selectivity for AHR over other receptors, transporters, and kinases",[4],highly selective
same,"pro-inflammatory cytokines, such as IL-2 and IL-9",[5],increase

# Source: US20230026232A1, “AHR INHIBITORS AND USES THEREOF” (Ikena Oncology, Inc., priority 2019, published 2023)
